# Numbers after ± are expanded uncertainties.
# Details: Liquid
structure (smiles),measurement,setting,value
"FCC(F)(F)F [1,1,1,2-tetrafluoroethane]",vapor or sublimation pressure,277.22 K,339.5 ± 1.2 kPa
same,vapor or sublimation pressure,279.24 K,364 ± 1.2 kPa
same,vapor or sublimation pressure,281.25 K,389.7 ± 1.3 kPa
same,vapor or sublimation pressure,283.24 K,416.7 ± 1.4 kPa
same,vapor or sublimation pressure,285.26 K,445.4 ± 1.5 kPa
same,vapor or sublimation pressure,287.27 K,475.4 ± 1.6 kPa
same,vapor or sublimation pressure,289.27 K,506.9 ± 1.7 kPa
same,vapor or sublimation pressure,291.29 K,539.9 ± 1.8 kPa
same,vapor or sublimation pressure,293.31 K,575.1 ± 1.9 kPa
same,vapor or sublimation pressure,295.3 K,610.8 ± 2 kPa
same,vapor or sublimation pressure,297.32 K,649.3 ± 2.2 kPa
same,vapor or sublimation pressure,299.21 K,685.5 ± 2.5 kPa
same,vapor or sublimation pressure,299.31 K,688.7 ± 2.5 kPa
same,vapor or sublimation pressure,299.34 K,689.4 ± 2.5 kPa
same,vapor or sublimation pressure,301.19 K,726.7 ± 2.6 kPa
same,vapor or sublimation pressure,301.3 K,730 ± 2.6 kPa
same,vapor or sublimation pressure,303.06 K,767 ± 2.6 kPa
same,vapor or sublimation pressure,303.19 K,769.8 ± 2.6 kPa
same,vapor or sublimation pressure,303.31 K,773.5 ± 2.6 kPa
same,vapor or sublimation pressure,305.33 K,819.1 ± 2.7 kPa
same,vapor or sublimation pressure,307.34 K,866.6 ± 2.9 kPa
same,vapor or sublimation pressure,309.35 K,916 ± 3 kPa
same,vapor or sublimation pressure,311.35 K,967.3 ± 3.2 kPa
same,vapor or sublimation pressure,313.31 K,1019.3 ± 3.4 kPa
same,vapor or sublimation pressure,315.36 K,1076.9 ± 3.5 kPa
same,vapor or sublimation pressure,317.32 K,1133 ± 3.7 kPa
same,vapor or sublimation pressure,319.38 K,1195.5 ± 3.9 kPa
same,vapor or sublimation pressure,321.34 K,1256.1 ± 4.1 kPa
same,vapor or sublimation pressure,329.37 K,1532.3 ± 5 kPa
same,vapor or sublimation pressure,335.39 K,1767.4 ± 5.7 kPa
same,vapor or sublimation pressure,337.41 K,1851.9 ± 6 kPa
same,vapor or sublimation pressure,339.41 K,1939.2 ± 6.3 kPa
same,vapor or sublimation pressure,341.43 K,2029.5 ± 6.6 kPa
same,vapor or sublimation pressure,343.43 K,2123 ± 6.9 kPa
same,vapor or sublimation pressure,347.44 K,2319.8 ± 7.5 kPa
same,vapor or sublimation pressure,349.46 K,2419.4 ± 7.8 kPa
same,vapor or sublimation pressure,351.46 K,2530.3 ± 8.2 kPa
same,vapor or sublimation pressure,353.48 K,2641.1 ± 8.5 kPa
same,vapor or sublimation pressure,355.48 K,2755.4 ± 8.9 kPa
same,vapor or sublimation pressure,360.48 K,3054.3 ± 9.8 kPa
COC [dimethyl ether],vapor or sublimation pressure,278.25 K,317.6 ± 1 kPa
same,vapor or sublimation pressure,283.2 K,373.6 ± 1.2 kPa
same,vapor or sublimation pressure,288.19 K,437.4 ± 1.4 kPa
same,vapor or sublimation pressure,293.2 K,509.4 ± 1.6 kPa
same,vapor or sublimation pressure,298.19 K,589.6 ± 1.9 kPa
same,vapor or sublimation pressure,303.18 K,679.2 ± 2.2 kPa
same,vapor or sublimation pressure,303.19 K,678.1 ± 2.2 kPa
same,vapor or sublimation pressure,308.19 K,778.7 ± 2.5 kPa
same,vapor or sublimation pressure,313.2 K,888.8 ± 2.8 kPa
same,vapor or sublimation pressure,318.19 K,1009.5 ± 3.2 kPa
same,vapor or sublimation pressure,323.28 K,1144.5 ± 3.6 kPa
same,vapor or sublimation pressure,323.37 K,1146.2 ± 3.6 kPa
same,vapor or sublimation pressure,328.25 K,1289.2 ± 4.1 kPa
same,vapor or sublimation pressure,333.23 K,1447.2 ± 4.6 kPa
same,vapor or sublimation pressure,338.23 K,1619.9 ± 5.1 kPa
same,vapor or sublimation pressure,343.18 K,1805.3 ± 5.7 kPa
same,vapor or sublimation pressure,343.41 K,1814.4 ± 5.7 kPa
same,vapor or sublimation pressure,347.42 K,1976.8 ± 6.2 kPa
same,vapor or sublimation pressure,348.17 K,2007.3 ± 6.3 kPa
same,vapor or sublimation pressure,351.44 K,2149.6 ± 6.7 kPa
same,vapor or sublimation pressure,353.1 K,2224.5 ± 7 kPa
same,vapor or sublimation pressure,353.45 K,2240 ± 7 kPa
same,vapor or sublimation pressure,355.08 K,2315.6 ± 7.3 kPa
same,vapor or sublimation pressure,355.46 K,2333.3 ± 7.3 kPa
same,vapor or sublimation pressure,357.49 K,2429.5 ± 7.6 kPa
same,vapor or sublimation pressure,359.49 K,2528.5 ± 7.9 kPa
same,vapor or sublimation pressure,360.52 K,2579.1 ± 8.1 kPa
